From patent US12459931B2, “Benzothiophene derivative regulator, preparation method therefor and use thereof” (Shanghai Hansoh Biomedical Co., Ltd., priority 2019, dated 2025)

Molecular target: 5-HT2A receptor (Homo sapiens (Human), UniProt P28223)
Experiment: Effect on calcium ion mobility in cells stably expressing 5-HT2A receptors (Flp-In-CHO-5HT2A, FLIPR)
Format: cell-based
Details: Flp-In-CHO-5HT2A cells, 5HT as agonist
Procedure: To determine the inhibitory effect of the compounds on 5-HT2A receptor.
Probenecid and BSA were added fresh on the day of the experiment.
The calcium signal values were determined by FLIPR. […] The percent inhibition rate and ten-point concentration data were fitted to the parametric nonlinear logistic equation by using GraphPad prism to calculate the IC50 values of the compound.

5-HT2A receptor, sequence (P28223 whole entry): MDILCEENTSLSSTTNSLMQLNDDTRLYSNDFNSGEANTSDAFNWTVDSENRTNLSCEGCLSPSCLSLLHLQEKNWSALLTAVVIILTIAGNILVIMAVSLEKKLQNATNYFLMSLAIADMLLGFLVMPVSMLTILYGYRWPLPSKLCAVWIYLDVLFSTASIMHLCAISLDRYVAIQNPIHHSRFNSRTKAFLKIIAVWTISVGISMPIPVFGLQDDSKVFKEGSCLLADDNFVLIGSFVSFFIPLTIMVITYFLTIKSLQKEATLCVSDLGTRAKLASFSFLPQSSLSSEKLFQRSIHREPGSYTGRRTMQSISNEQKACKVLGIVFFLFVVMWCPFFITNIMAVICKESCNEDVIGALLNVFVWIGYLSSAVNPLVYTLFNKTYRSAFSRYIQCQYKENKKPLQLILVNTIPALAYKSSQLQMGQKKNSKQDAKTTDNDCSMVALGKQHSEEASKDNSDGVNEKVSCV

SMILES: O=C(N[C@H]1CC[C@H](CCN2CCN(c3cccc4sccc34)CC2)CC1)C1(O)CC1 [Example 42, N-(Trans-4-(2-(4-(benzo[b]thiophen-4-yl)piperazin-1-yl)ethyl)cyclohexyl)-1-hydroxycyclopropane-1-carboxamide]
- IC50: 3.42 nM
